Laboratory results reported in the supplement of paper PMC10307832.

What was measured:
Assay in all cases: relative viability (nuclei count vs DMSO), 5 days (fraction); higher = more cells survive
201T = test system: 201T
Outline: (§1)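 Lung cancer cell lines in 1536-well plates were dosed by pin tool the day after seeding, either with one drug alone or with a fixed anchor-drug dose plus five library-drug doses (not always all listed) in √10 steps. After 5 days, cells were fixed and their nuclei stained in one step (final 0.05% Triton X-100, 1% formaldehyde, 1 ug/ml Hoechst), then counted on 4× images. Relative viability is the nuclei count in treated wells divided by that in vehicle wells. Values are medians of duplicate plates.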

EPLC-272H = test system: EPLC-272H
Outline: as §1

H3255 = test system: H3255
Outline: as §1

LCLC-103H = test system: LCLC-103H
Outline: as §1

LOU-NH91 = test system: LOU-NH91
Outline: as §1

NCI-H1355 = test system: NCI-H1355
Outline: as §1

NCI-H1651 = test system: NCI-H1651
Outline: as §1

NCI-H1666 = test system: NCI-H1666
Outline: as §1

NCI-H1734 = test system: NCI-H1734
Outline: as §1

NCI-H1792 = test system: NCI-H1792
Outline: as §1

NCI-H1793 = test system: NCI-H1793
Outline: as §1

NCI-H1915 = test system: NCI-H1915
Outline: as §1

NCI-H1944 = test system: NCI-H1944
Outline: as §1

NCI-H1975 = test system: NCI-H1975
Outline: as §1

NCI-H2023 = test system: NCI-H2023
Outline: as §1

NCI-H2342 = test system: NCI-H2342
Outline: as §1

NCI-H2405 = test system: NCI-H2405
Outline: as §1

NCI-H441 = test system: NCI-H441
Outline: as §1

NCI-H647 = test system: NCI-H647
Outline: as §1

RERF-LC-KJ = test system: RERF-LC-KJ
Outline: as §1

SK-LU-1 = test system: SK-LU-1
Outline: as §1

UMC-11 = test system: UMC-11
Outline: as §1

With `COCC1(CO)C(=O)C2CCN1CC2` (stereo not given) [PRIMA-1MET] + CC(=O)Nc1cccc(-n2c(=O)n(C3CC3)c(=O)c3c(Nc4ccc(I)cc4F)n(C)c(=O)c(C)c32)c1 [Trametinib] (partner 0.02 µM) the relative viability (201T; first compound 0.2 µM) was 0.757, the relative viability (201T; first compound 0.6325 µM) was 0.74 and the relative viability (201T; first compound 2 µM) was 0.684. The relative viability (201T; first compound 6.325 µM) was 0.749, the relative viability (201T; first compound 20 µM) was 0.721 and the relative viability (EPLC-272H; first compound 0.2 µM) was 0.281. For the same molecule, the relative viability (EPLC-272H; first compound 0.6325 µM) was 0.303, the relative viability (EPLC-272H; first compound 2 µM) was 0.272 and the relative viability (EPLC-272H; first compound 6.325 µM) was 0.29. For the same molecule, the relative viability (EPLC-272H; first compound 20 µM) was 0.216, the relative viability (H3255; first compound 0.2 µM) was 0.51 and the relative viability (H3255; first compound 0.6325 µM) was 0.625. For the same molecule, the relative viability (H3255; first compound 2 µM) was 0.57, the relative viability (H3255; first compound 6.325 µM) was 0.575 and the relative viability (H3255; first compound 20 µM) was 0.55. The relative viability (LCLC-103H; first compound 0.2 µM) was 0.675, the relative viability (LCLC-103H; first compound 0.6325 µM) was 0.619 and the relative viability (LCLC-103H; first compound 2 µM) was 0.604. The relative viability (LCLC-103H; first compound 6.325 µM) was 0.655, the relative viability (LCLC-103H; first compound 20 µM) was 0.709 and the relative viability (LOU-NH91; first compound 0.2 µM) was 0.842. For the same molecule, the relative viability (LOU-NH91; first compound 0.6325 µM) was 0.801, the relative viability (LOU-NH91; first compound 2 µM) was 0.793 and the relative viability (LOU-NH91; first compound 6.325 µM) was 0.831. It also gave a relative viability (LOU-NH91; first compound 20 µM) of 0.535, a relative viability (NCI-H1355; first compound 0.2 µM) of 0.393 and a relative viability (NCI-H1355; first compound 0.6325 µM) of 0.462. For the same molecule, the relative viability (NCI-H1355; first compound 2 µM) was 0.444, the relative viability (NCI-H1355; first compound 6.325 µM) was 0.427 and the relative viability (NCI-H1355; first compound 20 µM) was 0.428. The relative viability (NCI-H1651; first compound 0.2 µM) was 0.826, the relative viability (NCI-H1651; first compound 0.6325 µM) was 0.562 and the relative viability (NCI-H1651; first compound 2 µM) was 0.842. For the same molecule, the relative viability (NCI-H1651; first compound 6.325 µM) was 0.849, the relative viability (NCI-H1651; first compound 20 µM) was 0.848 and the relative viability (NCI-H1666; first compound 0.2 µM) was 0.886. It also gave a relative viability (NCI-H1666; first compound 0.6325 µM) of 0.815, a relative viability (NCI-H1666; first compound 2 µM) of 0.965 and a relative viability (NCI-H1666; first compound 6.325 µM) of 0.759. It also gave a relative viability (NCI-H1666; first compound 20 µM) of 0.877, a relative viability (NCI-H1734; first compound 0.2 µM) of 0.564 and a relative viability (NCI-H1734; first compound 0.6325 µM) of 0.622. It also gave a relative viability (NCI-H1734; first compound 2 µM) of 0.584, a relative viability (NCI-H1734; first compound 6.325 µM) of 0.581 and a relative viability (NCI-H1734; first compound 20 µM) of 0.0425. It also gave a relative viability (NCI-H1792; first compound 0.2 µM) of 0.413, a relative viability (NCI-H1792; first compound 6.325 µM) of 0.434 and a relative viability (NCI-H1792; first compound 20 µM) of 0.54. The relative viability (NCI-H1793; first compound 0.2 µM) was 0.365, the relative viability (NCI-H1793; first compound 0.6325 µM) was 0.41 and the relative viability (NCI-H1793; first compound 6.325 µM) was 0.361. It also gave a relative viability (NCI-H1793; first compound 20 µM) of 0.517, a relative viability (NCI-H1915; first compound 0.2 µM) of 0.166 and a relative viability (NCI-H1915; first compound 0.6325 µM) of 0.246. The relative viability (NCI-H1915; first compound 2 µM) was 0.248, the relative viability (NCI-H1915; first compound 6.325 µM) was 0.218 and the relative viability (NCI-H1915; first compound 20 µM) was 0.31. The relative viability (NCI-H1944; first compound 0.2 µM) was 0.366, the relative viability (NCI-H1944; first compound 0.6325 µM) was 0.349 and the relative viability (NCI-H1944; first compound 2 µM) was 0.407. For the same molecule, the relative viability (NCI-H1944; first compound 6.325 µM) was 0.387, the relative viability (NCI-H1944; first compound 20 µM) was 0.425 and the relative viability (NCI-H1975; first compound 0.2 µM) was 0.362. It also gave a relative viability (NCI-H1975; first compound 0.6325 µM) of 0.232, a relative viability (NCI-H1975; first compound 2 µM) of 0.277 and a relative viability (NCI-H1975; first compound 6.325 µM) of 0.351. The relative viability (NCI-H1975; first compound 20 µM) was 0.457, the relative viability (NCI-H2023; first compound 0.2 µM) was 0.681 and the relative viability (NCI-H2023; first compound 0.6325 µM) was 0.556. It also gave a relative viability (NCI-H2023; first compound 2 µM) of 0.603, a relative viability (NCI-H2023; first compound 6.325 µM) of 0.711 and a relative viability (NCI-H2023; first compound 20 µM) of 0.546. For the same molecule, the relative viability (NCI-H2342; first compound 0.2 µM) was 0.77, the relative viability (NCI-H2342; first compound 0.6325 µM) was 1.06 and the relative viability (NCI-H2342; first compound 6.325 µM) was 0.755. It also gave a relative viability (NCI-H2342; first compound 20 µM) of 0.67, a relative viability (NCI-H2405; first compound 0.2 µM) of 0.399 and a relative viability (NCI-H2405; first compound 0.6325 µM) of 0.598. For the same molecule, the relative viability (NCI-H2405; first compound 6.325 µM) was 0.463, the relative viability (NCI-H2405; first compound 20 µM) was 0.0947 and the relative viability (NCI-H441; first compound 0.2 µM) was 0.418. The relative viability (NCI-H441; first compound 0.6325 µM) was 0.297, the relative viability (NCI-H441; first compound 2 µM) was 0.369 and the relative viability (NCI-H441; first compound 6.325 µM) was 0.399. The relative viability (NCI-H441; first compound 20 µM) was 0.267, the relative viability (NCI-H647; first compound 0.2 µM) was 0.306 and the relative viability (NCI-H647; first compound 0.6325 µM) was 0.537. For the same molecule, the relative viability (NCI-H647; first compound 2 µM) was 0.279, the relative viability (NCI-H647; first compound 6.325 µM) was 0.456 and the relative viability (NCI-H647; first compound 20 µM) was 0.413. The relative viability (RERF-LC-KJ; first compound 0.2 µM) was 0.858, the relative viability (RERF-LC-KJ; first compound 0.6325 µM) was 0.849 and the relative viability (RERF-LC-KJ; first compound 2 µM) was 0.821. The relative viability (RERF-LC-KJ; first compound 6.325 µM) was 0.951, the relative viability (RERF-LC-KJ; first compound 20 µM) was 0.826 and the relative viability (SK-LU-1; first compound 0.2 µM) was 0.308. It also gave a relative viability (SK-LU-1; first compound 0.6325 µM) of 0.488, a relative viability (SK-LU-1; first compound 2 µM) of 0.35 and a relative viability (SK-LU-1; first compound 6.325 µM) of 0.382. The relative viability (SK-LU-1; first compound 20 µM) was 0.528, the relative viability (UMC-11; first compound 0.2 µM) was 0.705 and the relative viability (UMC-11; first compound 0.6325 µM) was 0.569. For the same molecule, the relative viability (UMC-11; first compound 2 µM) was 0.513, the relative viability (UMC-11; first compound 6.325 µM) was 0.817 and the relative viability (UMC-11; first compound 20 µM) was 0.749.
